TGI data for ten molecules are collected here from PubChem BioAssay (NCI).

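In this assay, cells in 96-well plates receive the compound at five concentrations for 48 hours. Endpoints are linearly interpolated between the surrounding concentrations. TGI: total growth inhibition.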

Test systems include CCRF-CEM leukemia; HOP-92 NSCLC; HT29 colon; K-562 leukemia; MCF7 breast; MDA-MB-435; NCI/ADR-RES ovarian; OVCAR-3 ovarian; SF-295 CNS; SNB-19 CNS; SR leukemia; T-47D breast; UACC-257 melanoma; ACHN renal.
Common to all, as to assay: inhibition of tumour cell growth, NCI panel, 48 h

Consider `Cc1ccc(S[C@@](C=O)(NC(=O)OCc2ccccc2)C(F)(F)F)cc1`, for which the TGI with CCRF-CEM leukemia is 52.3 µM; with HOP-92 NSCLC it was 65.3 µM; with HT29 colon it was 37.9 µM; in the assay on K-562 leukemia, > 100 µM; with MCF7 breast, 78.4 µM; with MDA-MB-435, 86.3 µM. The TGI is 51.8 µM with NCI/ADR-RES ovarian; > 100 µM in the assay on OVCAR-3 ovarian; > 100 µM in the assay on SF-295 CNS; 62.4 µM with SNB-19 CNS; 44.4 µM with SR leukemia; 71 µM in the assay with T-47D breast. For the same molecule, the TGI in the assay on UACC-257 melanoma was > 100 µM.
For the molecule `Cc1ccc(OCC2OC(n3cnc4c(Cl)nc(Nc5cc(Cl)cc(Cl)c5)nc43)CC2Oc2ccc(C)cc2)cc1` (centres undefined), the TGI in the assay with ACHN renal, in the assay with CCRF-CEM leukemia, in the assay on HOP-92 NSCLC, in the assay with HT29 colon, with K-562 leukemia and with MCF7 breast was > 100 µM throughout. The TGI in the assay on MDA-MB-435, in the assay on NCI/ADR-RES ovarian, in the assay with OVCAR-3 ovarian, in the assay on SF-295 CNS, in the assay on SNB-19 CNS and in the assay with SR leukemia was > 100 µM throughout. Also, the TGI in the assay with T-47D breast and in the assay with UACC-257 melanoma was > 100 µM each time.
On to `COc1ccccc1C1c2cc3c(cc2OC2(OC)COC(=O)C12)OCO3` (centres undefined), for which the TGI is > 100 µM in the assay with ACHN renal; 75.6 µM in the assay with CCRF-CEM leukemia; > 93.8 µM in the assay on HOP-92 NSCLC; 22.9 µM in the assay on HT29 colon; > 45.6 µM with K-562 leukemia; > 65.7 µM with MCF7 breast. In addition, the TGI in the assay with MDA-MB-435 is 5.74 µM; with NCI/ADR-RES ovarian, > 100 µM; in the assay on OVCAR-3 ovarian it was 69.3 µM; with SF-295 CNS it was 63.9 µM; in the assay with SNB-19 CNS, > 77.6 µM; in the assay with SR leukemia, > 28.8 µM. Moreover, the TGI in the assay with T-47D breast and in the assay with UACC-257 melanoma was > 100 µM in each case.
`COC(=O)c1cc2c(cc1Cl)Sc1nnc(Nc3ccccc3)n1S2(=O)=O`: the TGI is 4.16 µM with ACHN renal; 6.13 µM in the assay with CCRF-CEM leukemia; 3.75 µM in the assay with HOP-92 NSCLC; 5.17 µM in the assay on HT29 colon; > 42 µM with K-562 leukemia; 8.94 µM in the assay on MCF7 breast. Further, the TGI is 22.7 µM in the assay with MDA-MB-435; 27.4 µM in the assay on NCI/ADR-RES ovarian; 3.36 µM in the assay on OVCAR-3 ovarian; 12.7 µM in the assay with SF-295 CNS; 7.98 µM with SNB-19 CNS; 5.36 µM in the assay on SR leukemia. The TGI with T-47D breast was found to be 3.72 µM; in the assay with UACC-257 melanoma, 21.7 µM.
As to `CCOc1cnc(C(O)(c2ccccc2)c2ccccc2)o1`, the TGI in the assay with ACHN renal, with CCRF-CEM leukemia, in the assay on HOP-92 NSCLC, with HT29 colon, with K-562 leukemia and in the assay on MCF7 breast was > 100 µM in each case. For the same molecule, the TGI with MDA-MB-435, with NCI/ADR-RES ovarian, in the assay with OVCAR-3 ovarian, in the assay with SF-295 CNS, in the assay on SNB-19 CNS and in the assay on SR leukemia was > 100 µM in each case. Also, the TGI with T-47D breast and in the assay on UACC-257 melanoma was > 100 µM in each case.
Consider `COc1cc2nc(Cl)nc(NS(=O)(=O)c3cc4ccccc4s3)c2cc1OC`, for which the TGI in the assay with ACHN renal is 99.6 µM; in the assay on CCRF-CEM leukemia, 33 µM; in the assay with HOP-92 NSCLC it was 46.8 µM; in the assay on HT29 colon it was 88.9 µM; in the assay with K-562 leukemia, 52.6 µM; in the assay on MCF7 breast, > 100 µM. Further, the TGI with MDA-MB-435 was 54.5 µM; in the assay with NCI/ADR-RES ovarian it was > 100 µM; with OVCAR-3 ovarian it was 44.7 µM; in the assay with SF-295 CNS it was > 100 µM; in the assay with SNB-19 CNS, 48.6 µM; with SR leukemia it was 60.6 µM. The TGI is 56.7 µM in the assay with T-47D breast and > 100 µM in the assay with UACC-257 melanoma.
As for `C[C@H]1CC[C@@]2(OC1)O[C@H]1C[C@H]3[C@@H]4CC[C@@H]5C[C@@H](OC6OC(CO)C(O)C(O)C6OC6OC(CO)C(O)C(O)C6O)CC[C@]5(C)[C@H]4CC[C@]3(C)[C@H]1[C@@H]2C` (some centres undefined), the TGI in the assay on ACHN renal was 3.82 µM; with CCRF-CEM leukemia, 3.73 µM; with HOP-92 NSCLC, 4.12 µM; in the assay with HT29 colon, 3.68 µM; with K-562 leukemia, 4.33 µM; in the assay with MCF7 breast, 3.8 µM. Moreover, the TGI was 3.88 µM with MDA-MB-435; 5.03 µM with NCI/ADR-RES ovarian; 3.88 µM with OVCAR-3 ovarian; 3.95 µM in the assay with SF-295 CNS; 3.9 µM in the assay with SNB-19 CNS; 4.3 µM with SR leukemia. The values for the TGI in the assay on T-47D breast and in the assay with UACC-257 melanoma were 3.85 µM and 3.86 µM, respectively.
In the case of `Oc1c(N2CCCCC2)cc(-c2cc(N3CCCCC3)c(O)c3ccccc23)c2ccccc12`, the TGI is > 100 µM with ACHN renal; > 100 µM with CCRF-CEM leukemia; 70.4 µM with HOP-92 NSCLC; 55.5 µM with HT29 colon; > 100 µM in the assay with K-562 leukemia; 59.2 µM in the assay on MCF7 breast. Further, the TGI is 23.2 µM with MDA-MB-435; > 100 µM in the assay with NCI/ADR-RES ovarian; > 100 µM in the assay with OVCAR-3 ovarian; > 100 µM in the assay on SF-295 CNS; > 100 µM in the assay on SNB-19 CNS; 16.2 µM in the assay with SR leukemia. In addition, the figures for the TGI in the assay with T-47D breast and in the assay with UACC-257 melanoma were > 100 µM and 28.5 µM, respectively.
With `Cc1nc2sc3cccc(Cl)c3n2c(=O)c1N=Nc1ccc(Cl)cc1`, the TGI in the assay with ACHN renal, in the assay with CCRF-CEM leukemia, in the assay with HOP-92 NSCLC, with HT29 colon, in the assay on K-562 leukemia and with MCF7 breast was > 100 µM throughout. The TGI with MDA-MB-435, in the assay on NCI/ADR-RES ovarian, in the assay on OVCAR-3 ovarian, with SF-295 CNS, in the assay with SNB-19 CNS and in the assay on SR leukemia was > 100 µM in each case. Besides, the TGI in the assay on T-47D breast and in the assay with UACC-257 melanoma was > 100 µM throughout.
In the case of `O=c1[nH]c(N/N=C\C(O)C(O)C(O)C(O)CO)nc2ccccc12` (centres undefined), the TGI with ACHN renal, in the assay on CCRF-CEM leukemia, with HOP-92 NSCLC, in the assay with HT29 colon, in the assay on K-562 leukemia and in the assay on MCF7 breast was > 100 µM in each case. Moreover, the TGI in the assay on MDA-MB-435, in the assay with NCI/ADR-RES ovarian, with OVCAR-3 ovarian, in the assay on SF-295 CNS, in the assay on SNB-19 CNS and in the assay with SR leukemia was > 100 µM throughout. In addition, the TGI with T-47D breast and with UACC-257 melanoma was > 100 µM in each case.
